In BindingDB's records for PubMed 8632757 (Merck Sharp & Dohme Research Laboratories, 1996):
pKi: −log10 of the molar value.

What was measured:
[1] = target: T1, Gamma-aminobutyric acid receptor subunit alpha-1 (Homo sapiens, UniProt P14867)
T1 sequence (P14867 whole entry): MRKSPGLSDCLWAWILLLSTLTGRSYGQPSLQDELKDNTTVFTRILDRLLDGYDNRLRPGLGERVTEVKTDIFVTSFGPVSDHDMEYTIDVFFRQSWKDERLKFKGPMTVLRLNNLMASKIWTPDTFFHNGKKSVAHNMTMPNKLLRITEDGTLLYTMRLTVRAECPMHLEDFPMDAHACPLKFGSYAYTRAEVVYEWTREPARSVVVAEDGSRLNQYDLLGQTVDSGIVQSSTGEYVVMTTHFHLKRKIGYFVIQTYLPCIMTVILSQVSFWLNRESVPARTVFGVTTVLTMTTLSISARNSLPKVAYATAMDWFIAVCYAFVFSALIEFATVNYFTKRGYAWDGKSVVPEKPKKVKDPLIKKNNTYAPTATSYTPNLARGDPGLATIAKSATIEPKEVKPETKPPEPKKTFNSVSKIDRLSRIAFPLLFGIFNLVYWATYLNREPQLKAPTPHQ

[2] = target: Gamma-aminobutyric acid receptor subunit alpha-6 (Homo sapiens, UniProt Q16445)
Chain of Gamma-aminobutyric acid receptor subunit alpha-6 (Q16445 whole entry): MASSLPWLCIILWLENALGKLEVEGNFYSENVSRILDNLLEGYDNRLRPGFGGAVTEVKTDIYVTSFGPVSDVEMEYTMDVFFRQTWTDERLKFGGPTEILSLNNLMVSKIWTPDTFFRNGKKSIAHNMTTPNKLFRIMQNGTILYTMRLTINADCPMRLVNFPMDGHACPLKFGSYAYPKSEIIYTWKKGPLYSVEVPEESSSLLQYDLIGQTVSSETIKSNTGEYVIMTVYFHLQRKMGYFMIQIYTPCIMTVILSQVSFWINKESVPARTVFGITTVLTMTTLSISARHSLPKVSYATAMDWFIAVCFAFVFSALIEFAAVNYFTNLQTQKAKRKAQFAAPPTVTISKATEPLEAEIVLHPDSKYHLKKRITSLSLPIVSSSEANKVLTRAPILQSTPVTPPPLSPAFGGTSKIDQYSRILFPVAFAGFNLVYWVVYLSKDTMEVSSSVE

| SMILES | pKi [1] | pKi [2] |
| --- | --- | --- |
| CCOC(=O)c1ncn2c1CN(C)C(=O)c1cc(N=[N+]=[N-])ccc1-2 [RO-154513] | 8.59 |  |
| CN1C(=O)CN=C(c2ccccc2)c2cc(Cl)ccc21 |  | < 5.00 |
| CC(C)(C)OC(=O)c1ncn2c1C1CCCN1C(=O)c1c(Br)cccc1-2 (stereo not drawn) [8-Bromo-7-oxo-3b,4,5,6-tetrahydro-7H-2,6a,11b-triaza-benzo[g]cyclopenta[e]azulene-3-carboxylic acid tert-butyl ester] |  | 7.90 |
| Cc1nnc2n1-c1ccc(Cl)cc1C(c1ccccc1Cl)=NC2 [Halcion] |  | < 5.00 |
| CCc1c(C(=O)OC)ncc2[nH]c3cc(OC)c(OC)cc3c12 [NSC_104999] | 7.95 | 6.87 |
| Cc1ccc(-c2nc3ccc(C)cn3c2CC(=O)N(C)C)cc1 [Ambien] |  | < 5.00 |
| Cc1nnc2ccc(-c3cccc(C(F)(F)F)c3)nn12 | 7.05 | < 5.00 |
| COC(=O)c1cc2c(cn1)[nH]c1ccccc12 | 9.00 | 5.69 |
| CC(C)c1nc(-c2ncn3c2CN(C)C(=O)c2c(Cl)cccc2-3)no1 [FG 8205] | 9.17 | 6.64 |
